Values quoted from earlier work, collected in patent publication US20240226035A1, “Precision Medicine Approach to Treating Parkinson's Disease with a Monoamine Oxidase Inhibitor, an Antioxidant, or Both” (UNIVERSITY OF NORTH TEXAS HEALTH SCIENCE CENTER AT FORT …, priority 2021, published 2024).

Settings: DATATOP trial
[1] = deprenyl 10 mg/day, PD patients

Structure (SMILES): C#CCN(C)[C@H](C)Cc1ccccc1 [deprenyl]
- effect on reducing PD symptoms (deprenyl 10 mg/d, after 14 months, trial discontinued and became open-label): positive effects
- postponing levodopa-related adverse events or extending life [1]: no benefit
- time until disability that warranted initiation of levodopa therapy [1]: delayed time until disability that warranted initiation of levodopa therapy
